One assay concerns P-4E-BP1 (T37/46). Kind of assay: Cell based AlphaLISA assay, inhibition of P-4E-BP1 (T37/46) (mTORC1 substrate phosphorylation) in MDA-MB-468 cells. Conditions: Homo sapiens, AlphaLISA, two to four hours at 37° C., read-out: pIC50 for Inhibition of mTORC1 and mTORC2 Substrate Phosphorylation, P-4E-BP1-(T37/46) (converted). A digest of the protocol:
(§1)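 After treatment, cells were lysed in the kit's buffer once assay medium was withdrawn. Duplicate Alpha measurements tracked each phospho-epitope, and dose-response data were fitted to IC50 following normalization to control wells.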

A further assay relates to P-Akt (S473). Description: Cell based AlphaLISA assay, inhibition of P-Akt (S473) (mTORC2 substrate phosphorylation) in MDA-MB-468 cells. The conditions noted are these: Homo sapiens, AlphaLISA, two to four hours at 37° C., read-out: pIC50 for Inhibition of mTORC1 and mTORC2 Substrate Phosphorylation, p-AKT 1/2/3 -(S473) (converted). A digest of the protocol:
as §1

The test system of a further assay is P-P70S6K (T389). Kind of assay: Cell based AlphaLISA assay, inhibition of P-P70S6K (T389) (mTORC1 substrate phosphorylation) in MDA-MB-468 cells. The conditions noted are these: Homo sapiens, 4 h, AlphaLISA, two to four hours at 37° C., read-out: pIC50 for Inhibition of mTORC1 and mTORC2 Substrate Phosphorylation, P-P70S6K-(T389) (converted). A digest of the protocol:
as §1

This is an account of results in US20230093861A1, “RAPAMYCIN ANALOGS AS MTOR INHIBITORS” (Revolution Medicines, Inc., priority 2017, published 2023).

Read-outs that look alike come from different tables or passages of the source.

Regarding `CO[C@H]1C[C@@H]2CC[C@@H](C)[C@@](O)(O2)C(=O)C(=O)N2CCCC[C@H]2C(=O)O[C@H]([C@H](C)C[C@@H]2CC[C@@H](OCc3cccc(-c4cnc(N5CCN(S(=O)(=O)CCc6cn(CCOCCOCCOCCC(=O)NCCCCn7nc(-c8ccc9oc(N)nc9c8)c8c(N)ncnc87)nn6)CC5)nc4)c3)[C@H](OC)C2)CC(=O)[C@H](C)/C=C(\C)[C@@H](O)[C@@H](OC)C(=O)[C@H](C)C[C@H](C)/C=C/C=C/C=C/1C` [Example 27], the IC50 was < 3.16 nM with P-4E-BP1 (T37/46) (MDA-MB-468, 4 h); 3.16 to 31.6 nM in the assay on P-Akt (S473) (MDA-MB-468, 4 h); < 1 nM in the assay with P-P70S6K (T389).
As to `CO[C@H]1C[C@@H]2CC[C@@H](C)[C@@](O)(O2)C(=O)C(=O)N2CCCC[C@H]2C(=O)O[C@H]([C@H](C)C[C@@H]2CC[C@H](n3cc(COC(=O)NCCOCCOCCOCCOCCC(=O)NCCOCCOCCOCCOCCC(=O)NCCCCn4nc(-c5cc6cc(O)ccc6[nH]5)c5c(N)ncnc54)nn3)[C@H](OC)C2)CC(=O)[C@H](C)/C=C(\C)[C@@H](O)[C@@H](OC)C(=O)[C@H](C)C[C@H](C)/C=C/C=C/C=C/1C` [Example 127], the IC50 in the assay on P-4E-BP1 (T37/46) (MDA-MB-468, 4 h) is 3.16 to 31.6 nM; with P-Akt (S473) (MDA-MB-468, 4 h) it was 31.6 to 1000 nM; with P-P70S6K (T389) it was 1 to 10 nM.
Turning to `CO/N=C1/C[C@@H]([C@H](C)C[C@@H]2CC[C@H](n3cc(COC(=O)NCCOCCOCCOCCC(=O)NCCOCCOCCC(=O)NCCCCn4nc(-c5cc6cc(O)ccc6[nH]5)c5c(N)ncnc54)nn3)[C@H](OC)C2)OC(=O)[C@@H]2CCCCN2C(=O)C(=O)[C@]2(O)O[C@@H](CC[C@H]2C)C[C@H](OC)/C(C)=C/C=C/C=C/[C@@H](C)C[C@@H](C)C(=O)[C@H](OC)[C@H](O)/C(C)=C/[C@H]1C` [Example 152], the IC50 in the assay on P-4E-BP1 (T37/46) (MDA-MB-468, 4 h) was > 1000 nM; with P-Akt (S473) (MDA-MB-468, 4 h) it was > 1000 nM; in the assay on P-P70S6K (T389), 10 to 1000 nM.
For `CO[C@H]1C[C@@H]2CC[C@@H](C)[C@@](O)(O2)C(=O)C(=O)N2CCCC[C@H]2C(=O)O[C@H]([C@H](C)C[C@@H]2CC[C@@H](O)[C@H](OC)C2)C[C@@H](O)[C@H](C)/C=C(\C)[C@@H](O)[C@@H](OC)C(=NOCc2cn(-c3cnc(N4CCN(c5ncc(C(=O)NCCOCCC(=O)NCCCCn6nc(-c7ccc8oc(N)nc8c7)c7c(N)ncnc76)cn5)CC4CO)nc3)nn2)[C@H](C)C[C@H](C)/C=C/C=C/C=C/1C` (stereo partly drawn) [Example 194], the IC50 was > 1000 nM in the assay with P-4E-BP1 (T37/46) (MDA-MB-468, 4 h); > 1000 nM in the assay with P-Akt (S473) (MDA-MB-468, 4 h); < 1 nM in the assay with P-P70S6K (T389).
On to `CO[C@H]1C[C@@H]2CC[C@@H](C)[C@@](O)(O2)C(=O)C(=O)N2CCCC[C@H]2C(=O)O[C@H]([C@H](C)C[C@@H]2CC[C@@H](OCCCCc3cn(CCOCCOCCOCCOCCOCCOCCC(=O)N4CCC(Cn5nc(-c6ccc7oc(N)nc7c6)c6c(N)ncnc65)C4)nn3)[C@H](OC)C2)CC(=O)[C@H](C)/C=C(\C)[C@@H](O)[C@@H](OC)C(=O)[C@H](C)C[C@H](C)/C=C/C=C/C=C/1C` (stereo partly drawn) [Example 8], for which the IC50 was < 3.16 nM in the assay with P-4E-BP1 (T37/46) (MDA-MB-468, 4 h); 3.16 to 31.6 nM in the assay on P-Akt (S473) (MDA-MB-468, 4 h); < 1 nM with P-P70S6K (T389).
Consider `CO[C@H]1C[C@@H]2CC[C@@H](C)[C@@](O)(O2)C(=O)C(=O)N2CCCC[C@H]2C(=O)O[C@H]([C@H](C)C[C@@H]2CC[C@@H](OCCCCc3cn(CCOCCOCCOCCOCCOCCOCCOCCOCCC(=O)NCCCCn4nc(-c5cc6cc(O)ccc6[nH]5)c5c(N)ncnc54)nn3)[C@H](OC)C2)CC(=O)[C@H](C)/C=C(\C)[C@@H](O)[C@@H](OC)C(=O)[C@H](C)C[C@H](C)/C=C/C=C/C=C/1C` [Example 42], for which the IC50 with P-4E-BP1 (T37/46) (4 h) is < 3.16 nM; in the assay with P-Akt (S473) (4 h) it was 3.16 to 31.6 nM; in the assay on P-P70S6K (T389), < 1 nM.
For `CO/N=C1/C[C@@H]([C@H](C)C[C@@H]2CC[C@H](n3cc(COC(=O)NCCOCCOCCOCCC(=O)NCCOCCOCCC(=O)NCCCCn4nc(-c5ccc6oc(N)nc6c5)c5c(N)ncnc54)nn3)[C@H](OC)C2)OC(=O)[C@@H]2CCCCN2C(=O)C(=O)[C@]2(O)O[C@@H](CC[C@H]2C)C[C@H](OC)/C(C)=C/C=C/C=C/[C@@H](C)C[C@@H](C)C(=O)[C@H](OC)[C@H](O)/C(C)=C/[C@H]1C` [Example 151], the IC50 is 31.6 to 1000 nM with P-4E-BP1 (T37/46) (MDA-MB-468, 4 h); > 1000 nM in the assay on P-Akt (S473) (MDA-MB-468, 4 h); 10 to 1000 nM in the assay on P-P70S6K (T389).
The like results for `CO[C@H]1C[C@@H]2CC[C@@H](C)[C@@](O)(O2)C(=O)C(=O)N2CCCC[C@H]2C(=O)O[C@H]([C@H](C)C[C@@H]2CC[C@H](n3cc(-c4cccc(C(=O)NCCOCCOCCOCCC(=O)NCCOCCOCCOCCOCCC(=O)NCCCCn5nc(-c6cc7cc(O)ccc7[nH]6)c6c(N)ncnc65)c4)nn3)[C@H](OC)C2)CC(=O)[C@H](C)/C=C(\C)[C@@H](O)[C@@H](OC)C(=O)[C@H](C)C[C@H](C)/C=C/C=C/C=C/1C` [Example 140] were, in that order, 3.16 to 31.6 nM, 31.6 to 1000 nM and 1 to 10 nM.
As for `COc1ccc(-c2ccc3ncc4c(c3c2)n(-c2ccc(N3CCN(C(=O)CCOCCOCCOCCOCCOCCOCCn5cc(CCCCO[C@@H]6CC[C@@H](C[C@@H](C)[C@@H]7CC(=O)[C@H](C)/C=C(\C)[C@@H](O)[C@@H](OC)C(=O)[C@H](C)C[C@H](C)/C=C/C=C/C=C(\C)[C@@H](OC)C[C@@H]8CC[C@@H](C)[C@@](O)(O8)C(=O)C(=O)N8CCCC[C@H]8C(=O)O7)C[C@H]6OC)nn5)CC3)c(C(F)(F)F)c2)c(=O)n4C)cn1` [Example 44], the IC50 in the assay with P-4E-BP1 (T37/46) (4 h) is < 3.16 nM; with P-Akt (S473) (4 h), < 3.16 nM; with P-P70S6K (T389), < 1 nM.
On to `CO[C@H]1C[C@@H]2CC[C@@H](C)[C@@](O)(O2)C(=O)C(=O)N2CCCC[C@H]2C(=O)O[C@H]([C@H](C)C[C@@H]2CC[C@H](n3cc(-c4cnc(N5CCN(c6ncc(C(=O)NCCOCCOCCOCCOCCC(=O)N7CCc8cc(Cn9nc(-c%10ccc%11oc(N)nc%11c%10)c%10c(N)ncnc%109)ccc8C7)cn6)CC5)nc4)nn3)[C@H](OC)C2)CC(=O)[C@H](C)/C=C(\C)[C@@H](O)[C@@H](OC)C(=O)[C@H](C)C[C@H](C)/C=C/C=C/C=C/1C` [Example 117], for which the IC50 in the assay with P-4E-BP1 (T37/46) (MDA-MB-468, 4 h) is > 1000 nM; in the assay with P-Akt (S473) (MDA-MB-468, 4 h), > 1000 nM; in the assay with P-P70S6K (T389), < 1 nM.
`CO[C@H]1C[C@@H]2CC[C@@H](C)[C@@](O)(O2)C(=O)C(=O)N2CCCC[C@H]2C(=O)O[C@H]([C@H](C)C[C@@H]2CC[C@@H](OCCCCc3cn(CCOCCOCCOCCOCCOCCOCCOCCOCCC(=O)NCc4ccc(Cn5nc(-c6ccc7oc(N)nc7c6)c6c(N)ncnc65)cc4)nn3)[C@H](OC)C2)CC(=O)[C@H](C)/C=C(\C)[C@@H](O)[C@@H](OC)C(=O)[C@H](C)C[C@H](C)/C=C/C=C/C=C/1C` [Example 85]: the results for the IC50 in the assay on P-4E-BP1 (T37/46) (4 h), with P-Akt (S473) (4 h) and with P-P70S6K (T389) were < 3.16 nM, 3.16 to 31.6 nM and < 1 nM, respectively.
Consider `CO[C@H]1C[C@@H]2CC[C@@H](C)[C@@](O)(O2)C(=O)C(=O)N2CCCC[C@H]2C(=O)O[C@H]([C@H](C)C[C@@H]2CC[C@@H](OCCCCc3cn(CCOCCOCCOCCOCCNC(=O)CCCC(=O)NCCCCn4nc(-c5ccc6oc(N)nc6c5)c5c(N)ncnc54)nn3)[C@H](OC)C2)CC(=O)[C@H](C)/C=C(\C)[C@@H](O)[C@@H](OC)C(=O)[C@H](C)C[C@H](C)/C=C/C=C/C=C/1C` [Example 101], for which the IC50 is < 3.16 nM in the assay with P-4E-BP1 (T37/46) (MDA-MB-468, 4 h); 3.16 to 31.6 nM in the assay with P-Akt (S473) (MDA-MB-468, 4 h); < 1 nM with P-P70S6K (T389).
With `CO/N=C1/C[C@@H]([C@H](C)C[C@@H]2CC[C@H](n3cc(CCCC(=O)NCCOCCOCCOCCC(=O)NCCOCCOCCC(=O)NCCCCn4nc(-c5ccc6oc(N)nc6c5)c5c(N)ncnc54)nn3)[C@H](OC)C2)OC(=O)[C@@H]2CCCCN2C(=O)C(=O)[C@]2(O)O[C@@H](CC[C@H]2C)C[C@H](OC)/C(C)=C/C=C/C=C/[C@@H](C)C[C@@H](C)C(=O)[C@H](OC)[C@H](O)/C(C)=C/[C@H]1C` [Example 169], the IC50 is > 1000 nM in the assay on P-4E-BP1 (T37/46) (MDA-MB-468, 4 h); > 1000 nM with P-Akt (S473) (MDA-MB-468, 4 h); 10 to 1000 nM with P-P70S6K (T389).
On to `CO[C@H]1C[C@@H]2CC[C@@H](C)[C@@](O)(O2)C(=O)C(=O)N2CCCC[C@H]2C(=O)O[C@H]([C@H](C)C[C@@H]2CC[C@H](n3nncc3-c3cccc(-c4cnc(N5CCN(C(=O)CCc6cn(CCOCCOCCOCCC(=O)NCCCCn7nc(-c8ccc9oc(N)nc9c8)c8c(N)ncnc87)nn6)CC5)nc4)c3)[C@H](OC)C2)CC(=O)[C@H](C)/C=C(\C)[C@@H](O)[C@@H](OC)C(=O)[C@H](C)C[C@H](C)/C=C/C=C/C=C/1C` [Example 48], for which the IC50 with P-4E-BP1 (T37/46) (MDA-MB-468, 4 h) is < 3.16 nM; in the assay with P-Akt (S473) (MDA-MB-468, 4 h), 3.16 to 31.6 nM; in the assay on P-P70S6K (T389), < 1 nM.
